One assay relates to HCT-116 xenografts. The experiment in a line: HCT-116 xenograft in nude mice, tumor volume. It is filed as in vivo. As to conditions: for effect of sequential addition on tumor volume: day 19. On the procedure: All animal experiments were done in strict adherence to the Swiss law for animal protection. Female Crl:NU(NCr)-Foxn1nu mice were purchased from Charles River Laboratories International Inc (Germany) and kept in a pathogen-controlled environment. Subcutaneous tumors of HCT-116 (KRAS mutant, PIK3CA mutant, p53 wild-type) were induced by concentrating 3 million cells in 100 μl of PBS and injecting them in the right flank of nude mice. The mice were randomly grouped, and treatment was started when the tumor size reached 50 to 250 mm3. Each cohort included 8 mice. Tumor sizes were monitored three times weekly, and volumes were calculated with the following formula: (mm3)=length×width2×0.5.
COMPOUND A was dissolved in 0.5% hydroxypropyl methylcellulose, COMPOUND B was dissolved in 1% carboxymethylcellulose containing 0.5% Tween-80% in distilled water (pH7.6-8.0), and COMPOUND C was dissolved in Microemulsion pre-concentrate 5. All drugs were dosed orally using 5-10 ml/kg. COMPOUND A was administered three times a week (3qw) at 100 mg/kg. COMPOUND B and COMPOUND C were administered daily (q24 h) at 0.3 and 100 mg/kg, respectively. The combination dosing schedule and dosage were the same as the single reagents.
Six treatment cohorts (G1-G6) were tested: • G1: vehicle (DMSO) • G2: COMPOUND C • G3: COMPOUND A=>after 9 days treatment COMPOUND C was added • G4: COMPOUND B=>after 9 days treatment COMPOUND C was added • G5: COMPOUND A+COMPOUND B=>after 9 days treatment COMPOUND C was added • G6: COMPOUND A+COMPOUND B+COMPOUND C
For each tumor at each time-point the size was normalized to the size before the start of the treatment to obtain the “% Change tumor volume” (FIG. 17-18, y-axis). For FIG. 17 at each time point the mean size of all tumors per cohort was calculated, and the error of the size using the standard error of the mean (SEM). For FIG. 18 p-values were calculated using a one-tailed t test.

The subject of assay [1] is GP2d. The experiment in a line: Cell proliferation, cell count by microscopy, HSA synergy (Examples 2-9). It is filed as cell-based. The settings on record: Example 2, single agent, 72 h, cell count relative to DMSO. The method, then: (§1) After 24 h one 384-well plate per cell line was prepared for cell counting by microscopy (see below) without receiving treatment (=‘baseline’). The other cell plates were treated by transferring 25 nl of the 2000× compound from drug master plates using an ATS acoustic liquid dispenser (ECD Biosystems) and resulting in a final 1× concentration. COMPOUND A was used over a final concentration range of 13 nM-10 µM, COMPOUND B was used over a final concentration range of 13 nM-10 uM, and COMPOUND C was used over a final concentration range of 0.4 nM-0.3 µM (7 1:3 dilution steps). In order to assess the effect of the triple combination all individual COMPOUNDS (A, B, C), all three pair wise combinations (A+B, A+C, B+C), and the triple combination (A+B+C) were tested in the same experiment. Pair wise combinations and the triple combination were tested at a fixed ratio of 1:1 (for drug pairs) and 1:1:1 (for the drug triple) at each dilution resulting in 7 combination conditions per treatment. […] After compound addition 50 nl of 2 mM CellEvent Caspase-3/7 Green Detection Reagent (ThermoFisher, Catalog number C10423) were added to one of the three replicates using the HP D300 Digital Dispenser (Tecan). Caspase 3/7 induction was measured as a proxy for apoptosis induced by the treatments. Cells were treated for 72 h to 96 h depending on their doubling time (Table 4), and Caspase 3/7 activation was measured every 24 h by microscopy using an InCell Analyzer 2000 (GE Healthcare) equipped with a 4× objective and FITC excitation/emission filters. At the end of the treatment cells were prepared for cell counting by microscopy. Cells were fixed and permeabilised for 45 minutes in 4% PFA (Electron Microscopy Sciences, Catalog number 15714), 0.12% TX-100 (Electron Microscopy Sciences, Catalog number 22140) in PBS (Boston Bioproducts, Catalog number BM-220). After washing cells three times with PBS their DNA was stained for 30 minutes with Hoechst 33342 (ThermoFisher, Catalog number H3570) at a final concentration of 4 μg/ml. Cells were washed three times with PBS and then plates were heat-sealed using a PlateLoc (Agilent Technologies) with aluminum seals (Agilent Technologies, Catalog number 06644-001) and stored at 4° C. until imaging. All cells per well/treatment were captured in a single image by fluorescence microscopy using an InCell Analyzer 2000 (GE Healthcare) equipped with a 4× objective and DAPI excitation/emission filters.
(§2) Images were analyzed after adapting previously described methods (Horn, Sandmann et al. 2011) and using the Bioconductor package EBimage in R (Pau, Fuchs et al. 2010). Objects in both channels, DAPI (for Hoechst/DNA) and FITC (for Caspase 3/7), were segmented separately by adaptive thresholding and counted. A threshold for Caspase 3/7 positive objects was defined manually per cell line after comparing negative controls (DMSO) and positive controls (Staurosporine). By analyzing 17 additional object/nuclei features in the DNA channel (shape and intensity features) debris/fragmented nuclei were identified. To this end per cell line the distributions of the additional features between positive controls (Staurosporine) and negative controls (DMSO) were compared manually. Features that could differentiate between the conditions (e.g. a shift in the distribution of a feature measurement comparing DMSO with Staurosporine) where used to define the ‘debris’ population versus the population of ‘viable’ nuclei. The debris counts were subtracted from raw nuclei counts. The resulting nuclei number was used as measure of cell proliferation (‘cell count’).
(§3) The compound's effect on cell proliferation was calculated from the cell counts of the treatments relative to the cell counts of the negative control (DMSO), in FIG. 9 denoted as ‘Normalized cell count’ (=‘xnorm’) on the y-axis. Synergistic combinations were identified using the highest single agent model (HSA) as null hypothesis (Berenbaum 1989).

For a further assay, the system named is HCT-116. Described as above. It is filed as cell-based. The settings on record: 72 h, cell count relative to DMSO. The method, then: as §1, §2, §3
Assay [2] relates to LS-180. The description is as above. Format: cell-based. As to conditions: 72 h, cell count relative to DMSO. On the procedure: as §1, §2, §3
Assay [3] has as its system LoVo. Described as above. It is filed as cell-based. As to conditions: Example 2, single agent, 96 h, cell count relative to DMSO. The method, then:
as §1, §2, §3

Assay [4] relates to RKO. The assay is described as above. As to conditions: 72 h, cell count relative to DMSO. Format: cell-based. The method, then:
as §1, §2, §3

The test system of a further assay is COLO-678. As to the kind of experiment: Cell proliferation, cell count by microscopy (Example 1). Format: cell-based. The settings on record: colo678, single agent, 96 h treatment, cell count relative to DMSO. On the procedure:
(§4) To test the effect of the combination of COMPOUND A or COMPOUND B with COMPOUND C on cell proliferation cells were plated in black 384-well microplates with clear bottom (Matrix/Thermo Scientific, Catalog number 4332) in 50 ul media per well at cell densities between 500 and 1250 cells/well (Table 1) and allowed to incubate at 37 degrees, 5% CO2 for 24 h. After 24 h one 384-well plate per cell line was prepared for cell counting by microscopy (see below) without receiving treatment (=‘baseline’). The other cell plates were treated using a HP D300 Digital Dispenser (Tecan) generating 6-point dose response curves with 2.5× dilution steps.
(§5) COMPOUND A was used over a final concentration range of 51 nM-5 uM, COMPOUND B over a final concentration range of 10 nM-1 uM, and COMPOUND C over a final concentration range of 1 nM-100 nM.
(§6) For the combinations of COMPOUND A or COMPOUND B with COMPOUND C the single agents were combined at 6 single agent doses generating a dose matrix of 6×6=36 combination treatments. Additionally, negative controls (DMSO=‘vehicle’) and positive controls (Staurosporine=killing cells, 7-point 1:2 dilution series for a dose range of 16 nm-1 uM) were transferred as treatment controls. Cells were treated for 72 h to 96 h depending on their doubling time (Table 1). At the end of the treatment cells were prepared for cell counting by microscopy. Cells were fixed and permeabilised for 45 minutes in 4% PFA (Electron Microscopy Sciences, Catalog number 15714), 0.12% TX-100 (Electron Microscopy Sciences, Catalog number 22140) in PBS (Boston Bioproducts, Catalog number BM-220). After washing cells three times with PBS their DNA was stained for 30 minutes with Hoechst 33342 (ThermoFisher, Catalog number H3570) at a final concentration of 4 μg/ml. Cells were washed three times with PBS and then plates were heat-sealed using a PlateLoc (Agilent Technologies) with aluminum seals (Agilent Technologies, Catalog number 06644-001) and stored at 4° C. until imaging. All cells per well/treatment were captured in a single image by fluorescence microscopy using an InCell Analyzer 2000 (GE Healthcare) equipped with a 4× objective and DAPI excitation/emission filters.
as §2
(§7) The compound's effect on cell proliferation was calculated from the cell counts of the treatments relative to the cell counts of the negative control (DMSO), in FIGS. 1 and 2 denoted as ‘Normalized cell count’ on the y-axis.

Assay [5] deals with GP2d. Described as above. Format: cell-based. The settings on record: single agent, 72 h treatment, cell count relative to DMSO. The method, then:
as §4, §5, §6, §2, §7

For another assay, the system named is LIM2405. The description is as above. Format: cell-based. The settings on record: single agent, 72 h treatment, cell count relative to DMSO. The method, then:
as §4, §5, §6, §2, §7

Assay [6] concerns LS-180. Described as above. Format: cell-based. The settings on record: ls180, single agent, 72 h treatment, cell count relative to DMSO. The method, then:
as §4, §5, §6, §2, §7

Assay [7] deals with LoVo. Described as above. Format: cell-based. The settings on record: single agent, 96 h treatment, cell count relative to DMSO. The method, then:
as §4, §5, §6, §2, §7

In assay [8] the test system is RKO. Described as above. It is filed as cell-based. The settings on record: single agent, 72 h treatment, cell count relative to DMSO. The method, then:
as §4, §5, §6, §2, §7

For a further assay, the system named is SW48. Described as above. Format: cell-based. As to conditions: single agent, 96 h treatment, cell count relative to DMSO. The method, then: as §4, §5, §6, §2, §7

The text below walks through data of patent publication US20230398115A1, “MDM2 INHIBITORS AND COMBINATIONS THEREOF” (Novartis AG, priority 2015, published 2023).

For `CC1(C)CCC(c2ccc(Cl)cc2)=C(CN2CCN(c3ccc(C(=O)NS(=O)(=O)c4ccc(N[C@H](CCN5CCOCC5)CSc5ccccc5)c(S(=O)(=O)C(F)(F)F)c4)cc3)CC2)C1` [ABT-263], the “effect of sequential addition on tumor volume” value is given as “no additional benefit” with HCT-116 xenografts (ABT-263 100 mg/kg q24h added after 9 days to single agent COMPOUND A (G3)); “stopped tumor progression” with HCT-116 xenografts (ABT-263 100 mg/kg q24h added after 9 days to single agent trametinib (G4)); “marked tumor regressions” with HCT-116 xenografts (ABT-263 100 mg/kg q24h added after 9 days to the combination of COMPOUND A and trametinib (G5)).

Consider `CC1(C)CCC(c2ccc(Cl)cc2)=C(CN2CCN(c3ccc(C(=O)NS(=O)(=O)c4ccc(N[C@H](CCN5CCOCC5)CSc5ccccc5)c(S(=O)(=O)C(F)(F)F)c4)cc3)CC2)C1` [COMPOUND C], for which the half-inhibitory concentration (IC50) (commonly the concentration at which inhibition is half-maximal) in the assay with GP2d [1] is above 10 µM; in the assay on HCT-116 (Example 2, single agent), above 10 µM; in the assay on HCT-116 (Example 3, single agent), above 10 µM; with HCT-116 (Example 4, single agent), above 10 µM; with LS-180 [2] (Example 2, single agent), above 10 µM; in the assay on LS-180 [2] (Example 3, single agent), above 10 µM. Besides, the IC50 is above 10 µM in the assay on LS-180 [2] (Example 4, single agent); above 10 µM in the assay with LoVo [3]; above 10 µM in the assay on RKO [4] (Example 2, single agent); above 10 µM in the assay with RKO [4] (Example 3, single agent); above 10 µM in the assay on RKO [4] (Example 4, single agent).

In the case of `CC(=O)Nc1cccc(-n2c(=O)n(C3CC3)c(=O)c3c(Nc4ccc(I)cc4F)n(C)c(=O)c(C)c32)c1` [trametinib, N-(3-{3-cyclopropyl-5-[(2-fluoro-4-iodophenyl)amino]-6,8-dimethyl-2,4,7-trioxo-3,4,6,7-tetrahydropyrido[4,3-d]pyrimidin-1(2H)-yl}phenyl)acetamide], the IC75 in the assay with COLO-678 was above 0.1; in the assay with GP2d [5] it was above 0.1; in the assay on LIM2405, 0.008; with LS-180 [6], 0.014; in the assay on LoVo [7], 0.018; in the assay with RKO [8] it was above 0.1. Further, the IC75 with SW48 is listed as 0.003. Further, the “tumor response (% change tumor volume)” value with HCT-116 xenografts (nude mice, oral, COMPOUND A 100 mg/kg 3qw, trametinib 0.3 mg/kg q24h, ABT-263 100 mg/kg q24h, 9 days of treatment) is “progressive disease”.
